In patent US20220096512A1, “WATER-BASED ANTIFUNGAL COMPOSITIONS” (Sigma-Aldrich Co. LLC, priority 2019, published 2022):
In brackets after ≈: the same amount, converted by molar mass.

Columns and labels:
Aspergillus niger = test: Diffusion disc MIC testing against Aspergillus niger; type: cell-based; conditions: diffusion paper disc, 10 μL applied, incubated overnight at 30° C., average of three experiments
Experimental: (§1) Minimum inhibitory concentration (MIC) testing was determined for the inventive nystatin formulation described herein, along with comparative antifungal agents.
(§2) Nystatin (Solid) and amphotericin were dissolved in DMF in 1 mg/mL. Econazole nitrate was dissolved in PBS to achieve 1 mg/mL. Nystatin formulation diluted with PBS to achieve the same potency as Nystatin (Solid).
(§3) Antibiotic medium 19 was sterilized in autoclave, after sterilization when the temperature lowered to 45° C. and 1 mL from spore suspension was added. 8 mL from this mixture dispensed to each petri dish.
(§4) On each dish 6 sterile diffusion paper disc were placed, 10 μL from each antibiotic were applied in 10, 15, 20, 25, 30, 35 μg/mL concentrations. Where MIC concentrations were below 10, lower concentrations were used: 2, 5, 7.5 μg/mL
(§5) The petri dishes were incubated overnight at 30° C. The MIC were determined as the lower concentration that inhibition could be visualized.

Candida albicans = test: Diffusion disc MIC testing against Candida albicans; type: cell-based; conditions: diffusion paper disc, 10 μL applied, incubated overnight at 30° C., average of three experiments
Experimental: as §1, §2, §3, §4, §5

Row | Molecule | MIC (Aspergillus niger; Aspergillus niger, read-out: Inhibition of Aspergillus niger (MIC, lower concentration at which inhibition could be visualized)) | Inhibition of Candida albicans (MIC, lower concentration at which inhibition could be visualized) (Candida albicans) | Inhibition of Aspergillus niger (MIC, lower concentration at which inhibition could be visualized) (Aspergillus niger) | Inhibition of Aspergillus niger (MIC, lower concentration at which inhibition could be visualized) (Aspergillus niger; listed as Nystatin methyl ester)
1 | C[C@@H]1[C@H](O)[C@@H](C)/C=C/C=C/C=C/C=C/C=C/C=C/C=C/[C@H](O[C@@H]2O[C@H](C)[C@@H](O)[C@H](N)[C@@H]2O)C[C@@H]2O[C@](O)(C[C@@H](O)C[C@@H](O)[C@H](O)CC[C@@H](O)C[C@@H](O)CC(=O)O[C@H]1C)C[C@H](O)[C@H]2C(=O)O [Amphotericin, Amphotericin B] | 31.5 µg/mL (≈ 34.1 µM) |  |  | 
2 | Nystatin Methyl ester |  | 30 µg/mL | No inhibition | no observed inhibition
3 | C[C@@H]1[C@H](O)[C@@H](C)/C=C/C=C/CC/C=C/C=C/C=C/C=C/C(O[C@H]2O[C@H](C)[C@@H](O)[C@H](N)[C@@H]2O)CC2O[C@](O)(CC(O)C(O)CCC(O)CC(O)CC(O)CC(=O)O[C@H]1C)CC(O)C2C(=O)O (stereo partly shown) [Nystatin] |  | 14 µg/mL | 22.5 µg/mL | 
4 | Polymixin B |  | No inhibition | No inhibition | 
5 | Clc1ccc(COC(Cn2ccnc2)c2ccc(Cl)cc2Cl)cc1 (stereo not shown) [Econazole, Econazole nitrate] |  | No inhibition | No inhibition | 
